Experimental data reported in patent US20250081967A1, “PESTICIDALLY ACTIVE HETEROCYCLIC DERIVATIVES WITH SULFOXIMINE CONTAINING SUBSTITUENTS” (SYNGENTA CROP PROTECTION AG, priority 2021, published 2025).

How the values were obtained:
Assay type in all cases: in vivo
Myzus persicae [1] = assay: Activity against Myzus persicae (green peach aphid), feeding/contact activity, sunflower leaf discs; settings: Myzus persicae, foliar, 144 h, application rate 200 ppm; feeding/contact; 6 days after infestation
Procedure: Example B4: Activity Against Myzus persicae (Green Peach Aphid) Feeding/Contact Activity
(§1) Sunflower leaf discs were placed on agar in a 24-well microtiter plate and sprayed with aqueous test solutions prepared from 10′000 ppm DMSO stock solutions. After drying, the leaf discs were infested with an aphid population of mixed ages. The samples were assessed for mortality 6 days after infestation.

Tetranychus urticae = assay: Activity against Tetranychus urticae (two-spotted spider mite), bean leaf discs; settings: foliar, 192 h, application rate 200 ppm, mixed population (mobile stages), 8 days after infestation
Procedure: Example B10: Activity Against Tetranychus urticae (Two-Spotted Spider Mite)
Bean leaf discs on agar in 24-well microtiter plates were sprayed with aqueous test solutions prepared from 10′000 ppm DMSO stock solutions. After drying the leaf discs were infested with a mite population of mixed ages. The samples were assessed for mortality on mixed population (mobile stages) 8 days after infestation.

Bemisia tabaci = assay: Activity against Bemisia tabaci (cotton white fly), cotton leaf discs; settings: foliar, 144 h, application rate 200 ppm, adult white flies, 6 days after incubation
Procedure: Example B6: Activity Against Bemisia tabaci (Cotton White Fly)
Cotton leaf discs were placed on agar in 24-well microtiter plates and sprayed with aqueous test solutions prepared from 10′000 ppm DMSO stock solutions. After drying the leaf discs were infested with adult white flies. The samples were checked for mortality 6 days after incubation.

Euschistus heros = assay: Activity against Euschistus heros (neotropical brown stink bug), soybean leaf; settings: 120 h, application rate 200 ppm, N-2 nymphs, 5 days after infestation, read-out: effect in at least one of the two categories (mortality or growth inhibition)
Procedure: Example B7: Activity Against Euschistus heros (Neotropical Brown Stink Bug)
Soybean leaf on agar in 24-well microtiter plates were sprayed with aqueous test solutions prepared from 10′000 ppm DMSO stock solutions. After drying the leaf were infested with N-2 nymphs. The samples were assessed for mortality and growth inhibition in comparison to untreated samples 5 days after infestation.

Diabrotica balteata = assay: Activity against Diabrotica balteata (corn root worm), maize sprouts; settings: 96 h, application rate 200 ppm, L2 larvae, 4 days after infestation, read-out: effect in at least one of the two categories (mortality or growth inhibition)
Procedure: Example B3: Activity Against Diabrotica Balteata (Corn Root Worm)
Maize sprouts placed onto an agar layer in 24-well microtiter plates were treated with aqueous test solutions prepared from 10′000 ppm DMSO stock solutions by spraying. After drying, the plates were infested with L2 larvae (6 to 10 per well). The samples were assessed for mortality and growth inhibition in comparison to untreated samples 4 days after infestation.

Myzus persicae [2] = assay: Activity against Myzus persicae (green peach aphid), systemic activity, pea seedlings; settings: Myzus persicae, 144 h, test rate 24 ppm; systemic; 6 days after placing seedlings in test solutions
Procedure: Example B5: Activity Against Myzus persicae (Green Peach Aphid) Systemic Activity
Roots of pea seedlings infested with an aphid population of mixed ages were placed directly in the aqueous test solutions prepared from 10′000 DMSO stock solutions. The samples were assessed for mortality 6 days after placing seedlings in test solutions.

Plutella xylostella [3] = assay: Activity against Plutella xylostella (diamond back moth), artificial diet, eggs; settings: 192 h, application rate 200 ppm, 8 days after infestation, read-out: effect in at least one of the two categories (mortality or growth inhibition)
Method in brief: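 Artificial diet in wells treated with aqueous dilutions of 10′000 ppm DMSO stocks, dried, then infested with Plutella eggs. Mortality and growth inhibition scored against untreated samples 8 days after infestation.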

Spodoptera littoralis = assay: Activity against Spodoptera littoralis (Egyptian cotton leaf worm), cotton leaf discs; settings: foliar, 72 h, application rate 200 ppm, L1 larvae, 3 days after infestation, read-out: control (mortality, anti-feeding effect or growth inhibition)
Method in brief: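 Cotton leaf discs on agar sprayed with aqueous test solutions made from 10′000 ppm DMSO stocks, dried, then infested with five L1 larvae. Mortality, anti-feeding and growth inhibition scored versus untreated samples 3 days after infestation; control given when any category exceeds untreated.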

[4] = test system: Frankliniella occidentalis; assay: Activity against Frankliniella occidentalis (western flower thrips), sunflower leaf discs; settings: foliar, 168 h, application rate 200 ppm, mixed ages, 7 days after infestation
Procedure: Example B8: Activity Against Frankliniella occidentalis (Western Flower Thrips)
as §1, with “in” for “in a”, “plates” for “plate”, “[…]” for “10′000 ppm”, “drying” for “drying,”, “a Frankliniella” for “an aphid”, “7” for “6”

Plutella xylostella [5] = assay: Activity against Plutella xylostella (diamond back moth), artificial diet, L2 larvae; settings: 120 h, application rate 200 ppm, 5 days after infestation, read-out: effect in at least one of the two categories (mortality or growth inhibition)
Procedure: Example B2: Activity Against Plutella xylostella (Diamond Back Moth)
24-well microtiter plates with artificial diet were treated with aqueous test solutions prepared from 10′000 ppm DMSO stock solutions by pipetting. After drying, the plates were infested with L2 larvae (10 to 15 per well). The samples were assessed for mortality and growth inhibition in comparison to untreated samples 5 days after infestation.

CCn1c(C(F)(F)F)cc2nc(-c3ncc(OC(C)(C)C#N)cc3S(=N)(=O)CC)n(C)c2c1=O (single isomer, unassigned) [Compound P19-A, 2-[[6-[5-ethyl-3-methyl-4-oxo-6-(trifluoromethyl)imidazo[4,5-c]pyridin-2-yl]-5-(ethylsulfonimidoyl)-3-pyridyl]oxy]-2-methyl-propanenitrile]
≥ 80%: mortality at 200 ppm (Myzus persicae [1]) | mortality at 200 ppm (Tetranychus urticae) | mortality at 200 ppm (Bemisia tabaci) | percent effect (mortality or growth inhibition) at 200 ppm (Euschistus heros) | percent effect (mortality or growth inhibition) at 200 ppm (Diabrotica balteata) | mortality at 24 ppm (Myzus persicae [2]) | percent effect (mortality or growth inhibition) at 200 ppm (Plutella xylostella [3]) | percent control (mortality, anti-feedant effect or growth inhibition) at 200 ppm (Spodoptera littoralis)

CCS(=N)(=O)c1cc(OC(C)(C)C#N)cnc1-c1cn2cnc(SC(F)(F)F)cc2n1 (racemic) [Compound P7, 2-[[5-(ethylsulfonimidoyl)-6-[7-(trifluoromethylsulfanyl)imidazo[1,2-c]pyrimidin-2-yl]-3-pyridyl]oxy]-2-methyl-propanenitrile]
≥ 80%: mortality at 200 ppm (Myzus persicae [1]) | mortality at 200 ppm (Tetranychus urticae) | mortality at 200 ppm (Bemisia tabaci) | percent effect (mortality or growth inhibition) at 200 ppm (Euschistus heros) | mortality at 200 ppm [4] | percent effect (mortality or growth inhibition) at 200 ppm (Diabrotica balteata) | percent effect (mortality or growth inhibition) at 200 ppm (Plutella xylostella [3])

CCS(=N)(=O)c1cc(OC(C)(C)C#N)cnc1-c1nc2cc(C(F)(F)F)ncc2n1C (racemic) [Compound P13, 2-[[5-(ethylsulfonimidoyl)-6-[3-methyl-6-(trifluoromethyl)imidazo[4,5-c]pyridin-2-yl]-3-pyridyl]oxy]-2-methyl-propanenitrile]
≥ 80%: mortality at 200 ppm (Myzus persicae [1]) | mortality at 200 ppm (Tetranychus urticae) | mortality at 200 ppm (Bemisia tabaci) | percent effect (mortality or growth inhibition) at 200 ppm (Euschistus heros) | percent effect (mortality or growth inhibition) at 200 ppm (Plutella xylostella [5]) | percent effect (mortality or growth inhibition) at 200 ppm (Diabrotica balteata) | mortality at 24 ppm (Myzus persicae [2]) | percent control (mortality, anti-feedant effect or growth inhibition) at 200 ppm (Spodoptera littoralis)
